# From patent US8067442B2, “Heterocyclic antiviral compounds” (Roche Palo Alto LLC, priority 2008, dated 2011)
# Tests used:
# [1] = molecular target: T1, HCV polymerase (NS5B570n-Con1) (Hepatitis C virus genotype 1b, UniProt Q9WMX2); assay: biochemical; design: species or system HCV Con1 strain
# T1 construct: a 21 amino acid C-terminal deletion of full-length HCV polymerase; made in house; host or cells: E. coli BL21(DE3) pLysS, plasmid pET17b
# Procedure: The enzymatic activity of HCV polymerase (NS5B570n-Con1) was measured as the incorporation of radiolabeled nucleotide monophosphates into acid insoluble RNA products. Unincorporated radiolabeled substrate was removed by filtration and scintillant was added to the washed and dried filter plate containing radiolabeled RNA product. The amount of RNA product generated by NS5B570n-Con1 at the end of the reaction was directly proportional to the amount of light emitted by the scintillant.
# The HCV polymerase used in the enzymatic activity assay is a 21 amino acid C-terminal deletion of full-length HCV polymerase derived from HCV Con1 strain, genotype 1b (GenBank accession number AJ242654) (NS5B570n-Con1). The NS5B570n-Con1 was sub-cloned downstream to the T7 promoter of the plasmid expression construct pET17b and transformed into E. coli strain BL21(DE3) pLysS for protein expression. A single colony was used to start an innoculum for a 10 L culture in LB media supplemented with 100 μg/mL ampicillin at 37° C. Protein expression was induced by the addition of 0.25 mM isopropyl-β-D-thiogalactopyranoside (IPTG) when the optical density of the culture at […] was 0.8. Induction of protein expression was carried out at 30° C. for 16 h after which the cells were harvested by centrifugation. NS5B570n-Con1 was purified to homogeneity using a three-column purification protocol including subsequent column chromatography on Ni-NTA, SP-Sepharose HP and Superdex 75 resins.
# Enzymatic reactions in the presence of cIRES RNA template (see section [0300]) contained 20 nM cIRES RNA, 20 nM NS5B570n-Con1 enzyme, 0.5 μCi of tritiated UTP (Perkin Elmer catalog no. TRK-412; specific activity: 30 to 60 Ci/mmol), 1 μM each ATP, CTP, and GTP, 40 mM Tris-HCl pH 8.0, 40 mM NaCl, 4 mM DTT (dithiothreitol), 4 mM MgCl2, 5 μl of compound serial diluted in DMSO, and nuclease-free water to a final reaction volume of 50 μl. Enzymatic reactions in the presence of 20 nM cIRES template, 20 nM NS5B570n-Con1 enzyme, 1 μCi of tritiated UTP (Perkin Elmer catalog no. TRK-412; specific activity: 30 to 60 Ci/mmol), 40 mM Tris-HCl pH 8.0, 40 mM NaCl, 4 mM DTT (dithiothreitol), 4 mM MgCl2, 5 μl of compound serial diluted in DMSO, and nuclease-free water to a final reaction volume of 50 μl. Reaction mixtures were assembled in 96-well filter plates (cat #MADVNOB, Millipore Co.) and incubated for 2 h at 30° C. Reactions were stopped by addition of 10% final (v/v) trichloroacetic acid and incubated for 40 min at 4° C. Reactions were filtered, washed with 8 reaction volumes of 10% (v/v) trichloroacetic acetic acid, 4 reaction volumes of 70% (v/v) ethanol, air dried, and 25 μl of scintillant (Microscint 20, Perkin-Elmer) was added to each reaction well.
# Two RNA templates can be used to assay compounds described herein. The cIRES RNA template is 377 nucleotide long and consisting of a partial complementary sequence (36 nucleotides) of the core protein, followed by 341 nucleotide of the complementary sequence of the internal ribosome entry site. The poly A RNA template (GE Amersham catalog number 27-4110) was a homopolymeric RNA pre-annealed to a oligo(rU)16 primer at a molar ratio of 3-to-1 (primer-template). The cIRES template was used in the assay unless otherwise noted.
# The amount of light emitted from the scintillant was converted to counts per minute (CPM) on a Topcount® plate reader (Perkin-Elmer, Energy Range: Low, Efficiency Mode Normal, Count Time: 1 min, Background Subtract: none, Cross talk reduction: Off).
# Data was analyzed in Excel® (Microsoft®) and ActivityBase® (Idbs®). The reaction in the absence of enzyme was used to determine the background signal, which was subtracted from the enzymatic reactions. […] All data was expressed as a percentage of the positive control. The compound concentration at which the enzyme-catalyzed rate of RNA synthesis was reduced by 50% (IC50) was calculated by fitting
# [2] = test system: HCV replicon cells (2209-23), genotype 1b replicon in human hepatoma Huh7 cells; assay: HCV replicon assay (Renilla luciferase reporter); type: cell-based, HCV genotype 1b; conditions: Hepatitis C virus, Huh-7, 72 h; 2209-23 cells, three days incubation
# [3] = in vitro; conditions: human
# [4] = test system: HCV; conditions: cited from earlier work
smiles,measurement,setting,value
"CC(C)(C)c1cc(-c2ccc[nH]c2=O)cc2c(-c3cccc(C(N)=O)c3)coc12 [Compound I-78, 3-[7-tert-Butyl-5-(2-oxo-1,2-dihydro-pyridin-3-yl)-benzofuran-3-yl]-benzamide]",IC50,[1],0.009 µM
same,IC50,[2],0.078 µM
same,melting point,,190 to 193 °C
same,CC50,[3],12.4 µM
"CC(C)(C)c1cc(-c2ccc[nH]c2=O)cc2c(-c3cccc(NS(C)(=O)=O)c3)coc12 [Compound I-82, N-{3-[7-tert-Butyl-5-(2-oxo-1,2-dihydro-pyridin-3-yl)-benzofuran-3-yl]-phenyl}-methanesulfonamide]",IC50,[1],0.113 µM
same,melting point,,227 to 230 °C
CC(C)(C)c1cc(-c2ccc[nH]c2=O)cc2c(C(=O)Nc3cccc(NS(C)(=O)=O)c3)coc12 [Compound I-83],IC50,[1],0.201 µM
same,melting point,,290 to 291 °C
CC(C)(C)c1cc(-c2ccc[nH]c2=O)cc2c(C(=O)Nc3nccs3)coc12 [Compound I-84],IC50,[1],0.357 µM
same,melting point,,> 300 °C
CC(C)(C)c1cc(-c2ccc[nH]c2=O)cc2c(C(=O)Nc3cccc(CNS(C)(=O)=O)c3)coc12 [Compound I-85],IC50,[1],0.741 µM
same,melting point,,237 to 239 °C
CC(C)(C)c1cc(-c2ccc[nH]c2=O)cc2c(-c3ccc(N)cc3)coc12 [Compound I-86],IC50,[2],0.346 µM
same,melting point,,248 to 250 °C
same,CC50,[3],29.2 µM
CC(C)(C)c1cc(-c2ccc[nH]c2=O)cc2c(-c3ccc(C(N)=O)cc3)coc12 [Compound I-87],IC50,[1],0.002 µM
same,melting point,,282 to 284 °C
"CC(NS(C)(=O)=O)c1ccc(-c2coc3c(C(C)(C)C)cc(-c4ccc[nH]c4=O)cc23)cc1 (stereo not drawn) [Compound I-88, N-(1-{4-[7-tert-Butyl-5-(2-oxo-1,2-dihydro-pyridin-3-yl)-benzofuran-3-yl]-phenyl}-ethyl)-methanesulfonamide]",IC50,[1],0.008 µM
same,melting point,,255 to 257 °C
CC(C)(C)c1cc(-c2ccc[nH]c2=O)cc2c(-c3cnc(N)nc3)coc12 [Compound I-89],IC50,[1],0.69 µM
same,melting point,,> 300 °C
"Cc1ccc(-c2coc3c(C(C)(C)C)cc(-c4ccc[nH]c4=O)cc23)nc1 [Compound I-91, 3-[7-tert-Butyl-3-(5-methyl-pyridin-2-yl)-benzofuran-5-yl]-1H-pyridin-2-one]",IC50,[1],0.326 µM
same,melting point,,295 to 297 °C
CC(C)(C)c1cc(-c2cc(F)c[nH]c2=O)cc2c(C(=O)N3CC[C@H](CNS(C)(=O)=O)C3)coc12 [Compound I-92],IC50,[1],0.029 µM
same,melting point,,296 to 298 °C
CC(C)(C)c1cc(-c2ccc[nH]c2=O)cc2c(C(=O)N3CCC3)coc12 [Compound I-94],IC50,[1],0.148 µM
same,melting point,,> 300 °C
CC(C)(C)c1cc(-c2ccc[nH]c2=O)cc2c(C(=O)N3CC(CO)C3)coc12 [Compound I-95],IC50,[1],0.043 µM
same,melting point,,292 to 293 °C
"CC(C)(C)c1cc(-c2ccc[nH]c2=O)cc2c(-c3ccc(N)nc3)coc12 [Compound I-96, 3-[3-(6-Amino-pyridin-3-yl)-7-tert-butyl-benzofuran-5-yl]-1H-pyridin-2-one]",IC50,[1],0.047 µM
same,melting point,,255 to 257 °C
"COCc1cc(CNS(C)(=O)=O)ccc1-c1coc2c(C(C)(C)C)cc(-c3ccc[nH]c3=O)cc12 [Compound I-97, N-{4-[7-tert-Butyl-5-(2-oxo-1,2-dihydro-pyridin-3-yl)-benzofuran-3-yl]-3-methoxymethyl-benzyl}-methanesulfonamide]",IC50,[1],0.515 µM
same,melting point,,128 to 130 °C
Cc1ccc(-c2cc(C(C)(C)C)c3occ(C(=O)N4CC[C@H](CNS(C)(=O)=O)C4)c3c2)c(=O)[nH]1 [Compound I-98],IC50,[1],0.016 µM
same,melting point,,178 to 180 °C
CC(C)(C)c1cc(-c2ccc[nH]c2=O)cc2c(C(=O)N3CCC(NS(C)(=O)=O)CC3)coc12 [Compound I-99],IC50,[1],0.876 µM
same,melting point,,193 to 195 °C
CC(C)(C)c1cc(-c2ccc[nH]c2=O)cc2c(C(=O)N3CCC[C@H](CNS(C)(=O)=O)C3)coc12 [Compound I-100],IC50,[1],0.008 µM
same,IC50,[2],0.014 µM
CC(C)(C)c1cc(-c2ccc[nH]c2=O)cc2c(C(=O)N3CC(O)C3)coc12 [Compound I-102],IC50,[1],0.135 µM
same,melting point,,264 to 266 °C
CN(CC1CCCN(C(=O)c2coc3c(C(C)(C)C)cc(-c4ccc[nH]c4=O)cc23)C1)S(C)(=O)=O (stereo not drawn) [Compound I-104],IC50,[1],0.02 µM
same,melting point,,155 to 157 °C
"CN(C[C@H]1CCN(C(=O)c2coc3c(C(C)(C)C)cc(-c4ccc[nH]c4=O)cc23)C1)S(C)(=O)=O [Compound I-105, N-{(S)-1-[7-tert-Butyl-5-(2-oxo-1,2-dihydro-pyridin-3-yl)-benzofuran-3-carbonyl]-pyrrolidin-3-ylmethyl}-N-methyl-methanesulfonamide]",IC50,[1],0.025 µM
same,melting point,,155 to 157 °C
CCS(=O)(=O)NC[C@H]1CCN(C(=O)c2coc3c(C(C)(C)C)cc(-c4ccc[nH]c4=O)cc23)C1 [Compound I-106],IC50,[1],0.017 µM
same,melting point,,240 to 242 °C
CC(C)(C)c1cc(-c2ccc[nH]c2=O)cc2c(C(=O)N3CC[C@H](CNS(=O)(=O)C4CC4)C3)coc12 [Compound I-107],IC50,[1],0.017 µM
same,melting point,,158 to 160 °C
CC(C)S(=O)(=O)NC[C@H]1CCN(C(=O)c2coc3c(C(C)(C)C)cc(-c4ccc[nH]c4=O)cc23)C1 [Compound I-108],IC50,[1],0.025 µM
same,melting point,,163 to 165 °C
"Cn1cc(C(=O)N2CC[C@H](CNS(C)(=O)=O)C2)c2cc(-c3ccc[nH]c3=O)cc(C(C)(C)C)c21 [Compound I-111, N-{(S)-1-[7-tert-Butyl-1-methyl-5-(2-oxo-1,2-dihydro-pyridin-3-yl)-1H-indole-3-carbonyl]-pyrrolidin-3-ylmethyl}-methanesulfonamide]",IC50,[1],0.008 µM
same,melting point,,168 to 170 °C
Cn1cc(C(N)=O)c2cc(-c3ccc[nH]c3=O)cc(C(C)(C)C)c21 [Compound I-112],IC50,[1],0.778 µM
same,melting point,,232 to 234 °C
"NC(=O)c1ncn([C@@H]2O[C@H](CO)[C@@H](O)[C@H]2O)n1 [ribavirin, 1-((2R,3R,4S,5R)-3,4-Dihydroxy-5-hydroxymethyl-tetrahydro-furan-2-yl)-1H-[1,2,4]triazole-3-carboxylic acid amide]",serum levels of HCV-RNA,[4]; monotherapy / sole treatment,does not lower
same,patients in whom serum amino transferase levels are reduced to normal,[4]; monotherapy,40%
